Measured values as given in patent US12297224B2, “Crystal form, preparation method, and application of 4'-substituted nucleoside” (Henan Genuine Biotech Co., Ltd., priority 2018, dated 2025).
Where two headings read alike, the source gives them in different places.

Key:
[1] = Drug concentration in PBMC after oral administration in rhesus monkeys; format: in vivo; set-up: concentration of Ig-TP in PBMC: unit not given here; settings: for Drug concentration in PBMC, Compound 3TC-TP: oral 3TC 20 mg/kg
Description: The PBMC was separated from the remaining venous blood with Ficoll-Paque separation medium, condensed to 0.3 mL of cell suspension, counted, and stored frozen below −20° C.
The PBMC sample was crushed with an ultrasonic cell crusher, followed by addition of 3 times volume of acetonitrile, vortexed for 60 seconds, followed by 1 volume of the water, vortexed for 60 seconds, and centrifuged at 3000 rpm for 5 minutes; the supernatant was aspirated, transferred into a 10 mL round-bottom glass tube, dried in a stream of nitrogen at 40° C., and redissolved in 500 μL of methanol solution (methanol: water=2:8 (v/v)); the resulting solution was vortexed for 60 seconds, transferred into a 1.5 mL EP tube, centrifuged at 13000 rpm for 5 minutes, filtered, and centrifuged to obtain […] of supernatant for […] analysis.

[2] = in vitro; format: cell-based; settings: human
Description: (§1) CD4^+ T cells (Hut/CCR5) were plated into the wells of a 96-well plate ([…]), followed by addition of different compounds to be tested; the 96-well plate was incubated at 37° C. in an incubator for 3 days; 20 μL of MTT solution was added into the wells ([…]) of the 96-well plate; the 96-well plate was incubated at 37° C. in the incubator for 4 hours; 100 μL of Formazan solution was added into the wells of the 96-well plate; the 96-well plate was incubated at 37° C. in the incubator until the complete dissolution of Formazan was observed by a common optical microscope; and the absorbance of the solution was measured at 570 nm (as shown in FIGS. 2 and 4).
(§2) The cytotoxicity of the compound Ig-TP on CD4^+ T cells (Hut/CCR5) was measured using MTT assay.

[3] = Drug concentration in plasma after oral administration in rhesus monkeys; format: in vivo; settings: oral 6 mg/kg compound Ia, 24 hours
[4] = system: HIV-1 (HIV-luc/JRFL); test: microbe, parasite or virus in culture; format: cell-based; settings: for EC50: read-out: anti-HIV activity EC50 (50% effective concentration)
Description: The plasmids used for packaging pseudotyped single-cycle infectious HIV-1 (HIV-luc/JRFL) are as follows: the plasma pLAI-Aenv-Luc contains HIV-1 isolate in which Env and Vpr genes are deleted and luciferase gene is inserted into the Nef locus; and the plasma pJRFL contains CCR5-tropic HIV-1 env gene; the two plasmas are co-transfected into HEK293T cells; the supernatant was collected, filtered, and packaged; and the virion capture was quantified by […] ELISA.
(§3) CD4^+ T cells (Hut/CCR5) were cultured in RPMI 1640 medium (Gibco) containing 10% fetal bovine serum (Gibco), 100 U/mL penicillin (Invitrogen), and 100 […] (Invitrogen). 1×10^5 Hut/CCR5 cells were added to the compound Ia or Ib, infected with HIV-luc/JRFL (1 ng p24gag), incubated at 37° C. for 3 hours, washed to remove free virus, and resuspended in cell culture medium, followed by addition of the corresponding compound to be tested, incubated at 37° C. for 3 days, and collected for measurement of the luciferase activity and calculation of the percentage of viral inhibition.
as §3, with “in” for “in RPMI”, “Ig-TP (CL-002-TP),” for “Ia or Ib,”, “virus” for “viral”

[5] = system: CD4+ T cells (Hut/CCR5); test: in vitro; format: cell-based
Description: as §1, §2

[6] = system: HIV; settings: literature (Michailidis et al 2009); read-out: anti-HIV EC50; cited from earlier work
[7] = Human immunodeficiency virus 1, Hut/CCR5, 72 h

With `Nc1ccn([C@@H]2CS[C@H](COP(=O)(O)OP(=O)(O)OP(=O)(O)O)O2)c(=O)n1` [Compound 3TC-TP, reference compound] the “Drug concentration in PBMC, Compound 3TC-TP” value ([1]; 1 h) was 0.51 pmol/10^6 cells and the “Drug concentration in PBMC, Compound 3TC-TP” value ([1]; 6 h) was 2.45 pmol/10^6 cells.

For `C#CC1(CO)OC(n2cnc3c(N)nc(F)nc32)C(F)C1O` (stereo not drawn) [Compound Ia], the CC50 at 3 days [2] was greater than 8000 nM, the “compound Ia in plasma” value [3] was “undetectable” and the EC50 [4, 7] was 0.9 nM.

For `[N-]=[N+]=NC1(COP(=O)(O)OP(=O)(O)OP(=O)(O)O)OC(n2ccc(N)nc2=O)CC1O` (stereo not drawn) [Compound Ig-TP], the “Drug concentration in PBMC, Compound Ig-TP” value ([1]; oral compound Ig 1 mg/kg, 1 h) was 0.39 pmol/10^6 cells, the “Drug concentration in PBMC, Compound Ig-TP” value ([1]; oral compound Ig 1 mg/kg, 6 h) was 2.10 pmol/10^6 cells and the “Drug concentration in PBMC, Compound Ig-TP” value ([1]; oral compound Ig 1 mg/kg, 24 h) was 0.29 pmol/10^6 cells. The “Drug concentration in PBMC, Compound Ig-TP” value ([1]; oral compound Ig 1 mg/kg, 72 h) was 0.66 pmol/10^6 cells, the “Drug concentration in PBMC, Compound Ig-TP” value ([1]; oral compound Ig 1 mg/kg, 120 h) was 0.54 pmol/10^6 cells and the “Drug concentration in PBMC, Compound Ig-TP” value ([1]; oral compound Ig 6 mg/kg, 1 h) was 0.23 pmol/10^6 cells. For the same compound, the “Drug concentration in PBMC, Compound Ig-TP” value ([1]; oral compound Ig 6 mg/kg, 6 h) was 4.07 pmol/10^6 cells, the “Drug concentration in PBMC, Compound Ig-TP” value ([1]; oral compound Ig 6 mg/kg, 24 h) was 0.44 pmol/10^6 cells and the “Drug concentration in PBMC, Compound Ig-TP” value ([1]; oral compound Ig 6 mg/kg, 72 h) was 1.85 pmol/10^6 cells. The “Drug concentration in PBMC, Compound Ig-TP” value ([1]; oral compound Ig 6 mg/kg, 120 h) was 1.35 pmol/10^6 cells, the “concentration of Ig-TP in PBMC” value ([1]; rhesus monkeys, oral 6 mg/kg compound Ig, 120 hours (5 days)) was 1.35 and the CC50 [5] was 8130 nM. The “cytotoxicity CC50” value [5] was 2,328 ng/ml, the “inhibition of HIV viral proliferation IC50” value ([4]; Hut/CCR5 cells, HIV-luc/JRFL) was 0.373 ng/mL and the EC50 ([4]; Hut/CCR5 cells, HIV-luc/JRFL, 3 days) was 1.3 nM. The IC50 ([4]; Hut/CCR5 cells, HIV-luc/JRFL, read-out: inhibition of HIV viral proliferation IC50) was 1.3 nM.

For `[N-]=[N+]=NC1(CO)OC(n2cnc3c(N)nc(F)nc32)C(F)C1O` (stereo not drawn) [Ib], the CC50 at 3 days [2] was greater than 149000 nM and the EC50 [4, 7] was 0.62 nM.

For `C#C[C@]1(CO)O[C@@H](n2cnc3c(N)ncnc32)C[C@@H]1O` [EdA, 4′-ethynyl-2′-deoxyadenosine], the EC50 [6] is given as 11 nM.
